# According to ChEMBL document CHEMBL3124828, “A 2,6,9-hetero-trisubstituted purine inhibitor exhibits potent biological effects against multiple myeloma cells” (Bioorg Med Chem, 2013):
# pEC50, pIC50: −log10 of the molar value. Active and inactive are the calls of the source. The calls are words filed in the database; no cut-off is given here.
# What was measured:
# [1] = biological target: Tyrosine-protein kinase JAK1 (Homo sapiens) (UniProt P23458); test: Inhibition of JAK1 (unknown origin) at 100 uM after 20 mins
# [2] = Induction of apoptosis in human XG6 cells assessed as early apoptotic cells at 7.5 uM after 48 hrs by annexinV/propidium iodide staining (reference value: 8.62%); assay type: functional
# JJN-3 [3] = test: Induction of apoptosis in human JJN-3 cells assessed as viable cells at 12.5 uM after 48 hrs by annexinV/propidium iodide staining (reference value: 75.9%); assay type: functional; details: JJN-3, 48 h, read-out: Activity
# [4] = biological target: T1, Tyrosine-protein kinase JAK2 (Homo sapiens, UniProt O60674); test: Inhibition of JAK2 (unknown origin) after 20 mins
# [5] = Induction of apoptosis in human XG6 cells assessed as early apoptotic cells at 12.5 uM after 48 hrs by annexinV/propidium iodide staining (reference value: 8.62%); assay type: functional
# XG6 [6] = test: Induction of apoptosis in human XG6 cells assessed as late apoptotic cells at 15 uM after 48 hrs by annexinV/propidium iodide staining; assay type: functional, cell-based
# [7] = biological target: T1, Tyrosine-protein kinase JAK2; test: Inhibition of JAK2 (unknown origin) at 50 uM after 20 mins
# JJN-3 [8] = test: Induction of apoptosis in human JJN-3 cells assessed as late apoptotic cells at 12.5 uM after 48 hrs by annexinV/propidium iodide staining (reference value: 9.59%); assay type: functional
# [9] = biological target: T2, Tyrosine-protein kinase JAK3 (Homo sapiens) (UniProt P52333); test: Inhibition of JAK3 (unknown origin) at 50 uM after 20 mins
# T2 sequence (whole entry): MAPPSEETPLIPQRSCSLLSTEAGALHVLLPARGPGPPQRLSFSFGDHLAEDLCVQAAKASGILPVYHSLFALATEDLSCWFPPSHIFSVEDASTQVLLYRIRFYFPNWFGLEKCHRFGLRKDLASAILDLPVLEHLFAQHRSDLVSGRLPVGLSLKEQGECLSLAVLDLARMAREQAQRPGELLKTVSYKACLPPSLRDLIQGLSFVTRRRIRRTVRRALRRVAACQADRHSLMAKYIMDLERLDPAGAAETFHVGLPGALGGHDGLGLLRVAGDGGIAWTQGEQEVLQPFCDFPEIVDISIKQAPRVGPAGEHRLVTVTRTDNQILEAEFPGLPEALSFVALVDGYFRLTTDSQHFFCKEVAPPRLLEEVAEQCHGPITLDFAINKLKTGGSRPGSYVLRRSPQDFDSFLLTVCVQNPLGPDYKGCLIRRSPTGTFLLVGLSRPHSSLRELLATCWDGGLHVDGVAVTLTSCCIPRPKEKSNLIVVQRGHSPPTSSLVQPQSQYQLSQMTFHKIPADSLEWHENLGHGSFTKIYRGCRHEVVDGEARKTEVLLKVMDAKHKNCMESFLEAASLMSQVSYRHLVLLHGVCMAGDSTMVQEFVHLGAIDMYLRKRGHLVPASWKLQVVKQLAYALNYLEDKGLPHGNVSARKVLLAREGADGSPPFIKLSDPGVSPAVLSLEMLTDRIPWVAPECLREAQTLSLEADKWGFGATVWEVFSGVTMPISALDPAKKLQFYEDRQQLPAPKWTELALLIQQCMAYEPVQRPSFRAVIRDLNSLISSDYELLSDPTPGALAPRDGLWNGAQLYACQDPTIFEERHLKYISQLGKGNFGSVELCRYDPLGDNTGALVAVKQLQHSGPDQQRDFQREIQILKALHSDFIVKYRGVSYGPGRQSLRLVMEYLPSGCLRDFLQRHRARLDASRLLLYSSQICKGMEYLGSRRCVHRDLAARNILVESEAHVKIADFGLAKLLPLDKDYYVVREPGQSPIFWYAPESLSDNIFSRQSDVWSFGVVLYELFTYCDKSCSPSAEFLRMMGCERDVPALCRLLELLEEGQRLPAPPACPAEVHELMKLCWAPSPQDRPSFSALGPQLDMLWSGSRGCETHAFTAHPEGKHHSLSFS
# XG6 [10] = test: Cytotoxicity against human XG6 cells assessed as growth inhibition at 10 uM after 48 hrs by MTT assay; assay type: functional, cell-based
# [11] = Induction of apoptosis in human XG6 cells assessed as late apoptotic cells at 7.5 uM after 48 hrs by annexinV/propidium iodide staining (reference value: 7.78%); assay type: functional
# [12] = Induction of apoptosis in human XG6 cells assessed as viable cells at 12.5 uM after 48 hrs by annexinV/propidium iodide staining (reference value: 83.3%); assay type: functional; details: XG6, 48 h, read-out: Activity
# DU-145 = test: Cytotoxicity against human DU145 cells after 72 hrs by MTS assay; assay type: functional, cell-based
# [13] = biological target: AP2-associated protein kinase 1 (Homo sapiens) (UniProt Q2M2I8); test: Inhibition of AAK1 (unknown origin) at 2.5 uM after 20 mins
# MDA-MB-468 = test: Cytotoxicity against human MDA-MB-468 cells after 72 hrs by MTS assay; assay type: functional, cell-based; details: MDA-MB-468, 72 h
# [14] = biological target: T3, Tyrosine-protein kinase JAK3 (Homo sapiens, UniProt P52333); test: Inhibition of JAK3 (unknown origin) after 20 mins
# T3 sequence (P52333 whole entry): T2 sequence (whole entry)
# JJN-3 [15] = test: Cytotoxicity against human JJN-3 cells assessed as growth inhibition after 48 hrs by MTT assay; assay type: functional, cell-based
# [16] = Induction of apoptosis in human XG6 cells assessed as late apoptotic cells at 12.5 uM after 48 hrs by annexinV/propidium iodide staining (reference value: 7.78%); assay type: functional
# JJN-3 [17] = test: Induction of apoptosis in human JJN-3 cells assessed as early apoptotic cells at 7.5 uM after 48 hrs by annexinV/propidium iodide staining (reference value: 13.3%); assay type: functional
# JJN-3 [18] = test: Induction of apoptosis in human JJN-3 cells assessed as late apoptotic cells at 7.5 uM after 48 hrs by annexinV/propidium iodide staining (reference value: 9.59%); assay type: functional
# [19] = biological target: Leukocyte tyrosine kinase receptor (Homo sapiens, UniProt P29376); test: Inhibition of TYK1 (unknown origin) after 20 mins
# OCI-AML2 = test: Cytotoxicity against human OCI-AML2 cells after 72 hrs by MTS assay; assay type: functional, cell-based
# SK-MM-2 = test: Cytotoxicity against human SKMM-2 cells assessed as growth inhibition after 48 hrs by MTT assay; assay type: functional, cell-based
# JJN-3 [20] = test: Induction of apoptosis in human JJN-3 cells assessed as viable cells at 7.5 uM after 48 hrs by annexinV/propidium iodide staining (reference value: 75.9%); assay type: functional; details: JJN-3, 48 h, read-out: Activity
# [21] = biological target: Signal transducer and activator of transcription 3 (Homo sapiens) (UniProt P40763); test: Displacement of FAM-GpYLPQTV-NH2 from full-length Stat3 SH2 domain (unknown origin) up to 400 uM by fluorescence polarization
# [22] = biological target: Signal transducer and activator of transcription 3 (Homo sapiens) (UniProt P40763); test: Inhibition of STAT3 phosphorylation in IL-6 stimulated human OPM2 cells at > IC50 after 30 mins by flow cytometry; assay type: cell-based; details: OPM-2
# [23] = Induction of apoptosis in human XG6 cells assessed as viable cells at 7.5 uM after 48 hrs by annexinV/propidium iodide staining (reference value: 83.3%); assay type: functional; details: XG6, 48 h, read-out: Activity
# JJN-3 [24] = test: Induction of apoptosis in human JJN-3 cells assessed as early apoptotic cells at 12.5 uM after 48 hrs by annexinV/propidium iodide staining (reference value: 13.3%); assay type: functional
# [25] = test system: Tyrosine-protein kinase ABL1 (Homo sapiens), P00519 [F317L]; test: Inhibition of ABL1 F317L mutant (unknown origin) at 2.5 uM after 20 mins
# [26] = biological target: Signal transducer and activator of transcription 3 (Homo sapiens) (UniProt P40763); test: Displacement of FAM-GpYLPQTV-NH2 from full-length Stat3 SH2 domain (unknown origin) up to 100 uM by fluorescence polarization
# Signal transducer and activator of transcription 3 (Homo sapiens), sequence (P40763 whole entry, the tested form may be a part): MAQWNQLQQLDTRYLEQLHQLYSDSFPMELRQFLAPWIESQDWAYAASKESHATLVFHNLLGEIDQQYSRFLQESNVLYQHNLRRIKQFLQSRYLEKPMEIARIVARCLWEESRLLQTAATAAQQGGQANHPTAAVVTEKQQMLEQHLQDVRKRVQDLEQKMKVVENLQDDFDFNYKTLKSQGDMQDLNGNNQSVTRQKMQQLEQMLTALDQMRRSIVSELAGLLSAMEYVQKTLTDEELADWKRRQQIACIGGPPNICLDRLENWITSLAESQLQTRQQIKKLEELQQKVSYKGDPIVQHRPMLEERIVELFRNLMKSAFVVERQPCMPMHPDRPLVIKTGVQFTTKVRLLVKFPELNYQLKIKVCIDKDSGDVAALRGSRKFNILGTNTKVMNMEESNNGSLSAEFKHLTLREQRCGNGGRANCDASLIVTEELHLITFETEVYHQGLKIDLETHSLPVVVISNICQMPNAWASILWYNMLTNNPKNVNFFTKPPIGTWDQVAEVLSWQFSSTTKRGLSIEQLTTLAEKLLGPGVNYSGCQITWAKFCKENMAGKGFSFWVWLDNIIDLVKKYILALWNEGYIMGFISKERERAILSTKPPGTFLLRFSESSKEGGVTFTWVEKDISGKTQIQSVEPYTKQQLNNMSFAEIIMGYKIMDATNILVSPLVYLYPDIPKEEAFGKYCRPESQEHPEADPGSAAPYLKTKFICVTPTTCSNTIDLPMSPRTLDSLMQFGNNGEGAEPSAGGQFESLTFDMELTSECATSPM
# T1 sequence (O60674 whole entry): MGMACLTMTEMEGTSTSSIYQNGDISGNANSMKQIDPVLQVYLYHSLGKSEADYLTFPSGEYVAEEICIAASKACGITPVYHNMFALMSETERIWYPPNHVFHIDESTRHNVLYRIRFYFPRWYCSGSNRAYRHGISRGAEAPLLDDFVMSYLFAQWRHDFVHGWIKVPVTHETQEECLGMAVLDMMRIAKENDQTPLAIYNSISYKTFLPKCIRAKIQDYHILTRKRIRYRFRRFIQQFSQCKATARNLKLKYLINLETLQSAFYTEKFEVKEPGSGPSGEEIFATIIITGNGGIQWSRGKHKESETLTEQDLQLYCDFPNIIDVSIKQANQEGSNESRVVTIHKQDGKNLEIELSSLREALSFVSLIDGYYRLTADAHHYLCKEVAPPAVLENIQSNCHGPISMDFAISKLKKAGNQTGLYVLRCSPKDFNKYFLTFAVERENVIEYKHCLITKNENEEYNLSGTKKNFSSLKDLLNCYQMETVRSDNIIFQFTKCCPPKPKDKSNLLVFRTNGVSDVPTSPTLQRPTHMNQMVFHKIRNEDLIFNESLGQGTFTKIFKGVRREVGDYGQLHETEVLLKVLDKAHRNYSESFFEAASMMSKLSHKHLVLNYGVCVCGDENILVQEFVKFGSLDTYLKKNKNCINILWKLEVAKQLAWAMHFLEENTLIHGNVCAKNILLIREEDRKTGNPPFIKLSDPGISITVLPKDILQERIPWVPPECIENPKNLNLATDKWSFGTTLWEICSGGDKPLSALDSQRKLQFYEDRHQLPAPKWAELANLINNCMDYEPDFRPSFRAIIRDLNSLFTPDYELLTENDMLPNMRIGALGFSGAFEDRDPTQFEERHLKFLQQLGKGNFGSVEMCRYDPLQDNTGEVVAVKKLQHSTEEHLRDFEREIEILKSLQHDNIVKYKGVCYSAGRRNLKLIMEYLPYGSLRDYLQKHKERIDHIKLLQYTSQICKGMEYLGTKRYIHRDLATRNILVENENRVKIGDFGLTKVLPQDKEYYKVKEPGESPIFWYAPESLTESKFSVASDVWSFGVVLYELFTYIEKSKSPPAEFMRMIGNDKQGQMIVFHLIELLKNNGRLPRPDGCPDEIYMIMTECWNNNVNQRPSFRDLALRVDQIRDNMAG
# Leukocyte tyrosine kinase receptor, sequence (P29376 whole entry): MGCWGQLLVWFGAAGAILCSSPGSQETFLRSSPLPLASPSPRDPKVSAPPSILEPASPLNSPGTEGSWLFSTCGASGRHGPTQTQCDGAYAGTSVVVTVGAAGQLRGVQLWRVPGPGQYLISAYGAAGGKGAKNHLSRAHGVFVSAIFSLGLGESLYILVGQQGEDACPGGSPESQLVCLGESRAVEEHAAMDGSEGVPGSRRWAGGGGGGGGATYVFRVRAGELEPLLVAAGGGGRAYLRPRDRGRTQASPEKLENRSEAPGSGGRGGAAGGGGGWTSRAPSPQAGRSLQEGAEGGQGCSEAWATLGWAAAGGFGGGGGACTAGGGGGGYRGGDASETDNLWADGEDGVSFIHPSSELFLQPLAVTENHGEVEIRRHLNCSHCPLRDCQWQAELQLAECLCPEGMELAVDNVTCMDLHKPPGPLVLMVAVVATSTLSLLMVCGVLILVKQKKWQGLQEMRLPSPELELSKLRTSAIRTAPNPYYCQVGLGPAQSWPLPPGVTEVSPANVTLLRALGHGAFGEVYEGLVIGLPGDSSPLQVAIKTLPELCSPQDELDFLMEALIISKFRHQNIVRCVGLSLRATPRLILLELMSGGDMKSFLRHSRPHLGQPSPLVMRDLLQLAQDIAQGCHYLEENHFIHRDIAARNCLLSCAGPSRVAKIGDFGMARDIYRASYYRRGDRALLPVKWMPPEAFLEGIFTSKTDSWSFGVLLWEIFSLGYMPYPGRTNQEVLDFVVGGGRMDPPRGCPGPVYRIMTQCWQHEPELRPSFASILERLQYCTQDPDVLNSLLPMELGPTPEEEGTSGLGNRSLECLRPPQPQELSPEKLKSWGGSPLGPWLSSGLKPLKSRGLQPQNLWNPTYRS
# Tyrosine-protein kinase JAK1 (Homo sapiens), sequence (P23458 whole entry): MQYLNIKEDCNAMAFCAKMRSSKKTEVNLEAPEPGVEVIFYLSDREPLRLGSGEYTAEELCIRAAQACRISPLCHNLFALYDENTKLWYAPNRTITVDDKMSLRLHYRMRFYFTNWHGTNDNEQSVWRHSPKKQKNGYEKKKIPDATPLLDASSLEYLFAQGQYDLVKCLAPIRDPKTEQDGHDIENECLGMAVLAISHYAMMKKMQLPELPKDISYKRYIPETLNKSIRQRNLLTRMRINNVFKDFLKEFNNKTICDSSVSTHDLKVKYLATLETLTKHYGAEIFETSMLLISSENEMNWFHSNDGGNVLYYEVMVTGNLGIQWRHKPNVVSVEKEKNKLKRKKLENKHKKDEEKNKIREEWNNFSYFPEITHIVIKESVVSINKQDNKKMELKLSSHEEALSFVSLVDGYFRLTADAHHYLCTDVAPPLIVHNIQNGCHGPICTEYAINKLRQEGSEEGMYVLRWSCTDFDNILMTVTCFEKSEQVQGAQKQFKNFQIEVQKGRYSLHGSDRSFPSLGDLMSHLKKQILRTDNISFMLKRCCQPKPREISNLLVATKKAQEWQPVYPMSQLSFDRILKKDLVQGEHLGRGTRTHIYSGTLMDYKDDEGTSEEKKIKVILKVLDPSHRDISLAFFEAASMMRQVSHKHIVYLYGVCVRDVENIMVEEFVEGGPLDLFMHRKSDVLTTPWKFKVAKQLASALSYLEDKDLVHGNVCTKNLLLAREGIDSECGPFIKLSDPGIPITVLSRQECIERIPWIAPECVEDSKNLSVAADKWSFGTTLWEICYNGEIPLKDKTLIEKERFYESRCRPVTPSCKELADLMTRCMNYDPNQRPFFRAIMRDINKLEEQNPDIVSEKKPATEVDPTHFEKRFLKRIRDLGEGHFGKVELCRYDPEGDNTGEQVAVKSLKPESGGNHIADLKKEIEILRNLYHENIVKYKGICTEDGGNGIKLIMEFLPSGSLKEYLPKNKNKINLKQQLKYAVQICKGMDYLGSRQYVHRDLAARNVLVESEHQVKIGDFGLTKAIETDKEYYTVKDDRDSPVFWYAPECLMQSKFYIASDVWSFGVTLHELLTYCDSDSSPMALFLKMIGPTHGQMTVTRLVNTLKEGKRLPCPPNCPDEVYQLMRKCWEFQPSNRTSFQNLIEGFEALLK
# Tyrosine-protein kinase ABL1 (Homo sapiens), P00519 [F317L], sequence (P00519 whole entry F317L, the tested form may be a part): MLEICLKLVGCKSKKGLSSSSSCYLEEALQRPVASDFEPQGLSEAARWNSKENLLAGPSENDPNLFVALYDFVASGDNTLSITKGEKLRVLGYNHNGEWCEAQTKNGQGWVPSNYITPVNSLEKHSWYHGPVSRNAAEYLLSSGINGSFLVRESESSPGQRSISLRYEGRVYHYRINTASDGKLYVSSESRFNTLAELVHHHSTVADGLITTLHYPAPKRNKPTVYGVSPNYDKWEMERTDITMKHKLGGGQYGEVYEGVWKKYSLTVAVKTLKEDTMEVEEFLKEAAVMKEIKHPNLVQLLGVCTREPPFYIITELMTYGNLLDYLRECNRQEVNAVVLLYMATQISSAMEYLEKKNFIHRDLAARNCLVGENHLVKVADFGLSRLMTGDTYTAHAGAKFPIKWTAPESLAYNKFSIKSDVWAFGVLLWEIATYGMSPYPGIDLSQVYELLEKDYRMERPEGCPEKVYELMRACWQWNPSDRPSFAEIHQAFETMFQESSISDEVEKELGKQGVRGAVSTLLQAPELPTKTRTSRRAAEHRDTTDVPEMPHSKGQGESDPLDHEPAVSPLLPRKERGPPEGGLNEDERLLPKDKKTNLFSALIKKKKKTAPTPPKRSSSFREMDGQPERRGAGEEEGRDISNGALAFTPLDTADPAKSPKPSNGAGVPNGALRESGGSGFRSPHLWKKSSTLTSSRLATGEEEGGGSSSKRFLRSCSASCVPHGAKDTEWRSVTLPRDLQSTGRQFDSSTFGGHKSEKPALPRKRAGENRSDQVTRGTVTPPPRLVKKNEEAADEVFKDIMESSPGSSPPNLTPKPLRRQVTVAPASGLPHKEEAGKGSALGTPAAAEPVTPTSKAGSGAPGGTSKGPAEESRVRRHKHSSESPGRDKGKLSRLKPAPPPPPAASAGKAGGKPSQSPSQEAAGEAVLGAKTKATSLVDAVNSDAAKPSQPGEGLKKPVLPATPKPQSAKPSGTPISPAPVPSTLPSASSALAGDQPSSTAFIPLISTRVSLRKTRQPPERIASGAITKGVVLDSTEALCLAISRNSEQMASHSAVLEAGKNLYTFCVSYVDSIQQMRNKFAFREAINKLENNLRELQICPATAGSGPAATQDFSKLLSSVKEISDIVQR
smiles,measurement,setting,value
NS(=O)(=O)OCCn1cnc2c(Nc3ccc(F)cc3)nc(NCc3ccc(C4CCCCC4)cc3)nc21,inhibition,[1],Active
same,Activity,[2],22.7%
same,viability at 12.5 µM,JJN-3 [3],36.4%
same,pIC50,[4],4.78
same,Activity,[5],7.57%
same,Activity,XG6 [6],Active
same,inhibition,[7],50%
same,Activity,JJN-3 [8],38.8%
same,inhibition,[9],85%
same,growth inhibition (GI),XG6 [10],Active
same,Activity,[11],23.2%
same,viability at 12.5 µM,[12],1.98%
same,Activity,DU-145,Active
same,inhibition,[13],52%
same,pEC50,MDA-MB-468,4.70
same,pIC50,[14],4.98
same,growth inhibition (GI),JJN-3 [15],inactive
same,Activity,[16],74.4%
same,Activity,JJN-3 [17],17.6%
same,Activity,JJN-3 [18],16%
same,pIC50,[19],4.97
same,Activity,OCI-AML2,Active
same,growth inhibition (GI),SK-MM-2,Active
same,viability at 7.5 µM,JJN-3 [20],64.5%
same,inhibition,[21],inactive
same,inhibition,[22],inactive
same,viability at 7.5 µM,[23],53.8%
same,Activity,JJN-3 [24],19.5%
same,inhibition,[25],50%
same,inhibition,[26],inactive
